Where two headings read alike, the source gives them in different places.
Experiments:
[1] = target: Cys242 in human PIK3CA (157-299) (Homo sapiens (Human), UniProt P42336); experiment: Covalent modification assay using MALDI-TOF MS; type: biochemical; details: 4 h reaction time point
Method: Matrix-Assisted Laser Desorption Ionization-Time of Flight Mass Spectrometry (MALDI-TOF MS) analysis of covalent modification of Cys242 in human PIK3CA (157-299) was performed.
Reaction: 3.33 μM or 1 μM of PIK3CA (157-299) protein (produced in-house by Protein Expression Laboratory, FNLCR/Leidos Biomed) in 20 mM HEPES buffer containing 150 mM NaCl, 2 mM MgCl2, pH 7.3 was prepared freshly before assay. Twelve-μL aliquots of protein were dispensed onto low volume 384-well plate, then 470 nL DMSO and 30 nL of tested compounds from 10 mM DMSO stocks were added to appropriate wells using ECHO 555 acoustic liquid handler (Labcyte Inc.). For each reaction/assay, three blanks were prepared by mixing 12 μL of protein solution with 500 nL DMSO. The wells content was carefully mixed by aspiration, and then the plate was sealed by an adhesive cover, centrifuged at 931 g for 1 minute, and kept in the dark at room temperature until 15 min, 30 min, 2 h, or 4 h collections.
Targetpretreatment: Before each assay MALDI target (Bruker MPT 384 ground steel BC) was pre-treated by pipetting on each spot 0.75 μL of saturated sinapinic acid in acetonitrile (ACN).
Sample preparation: At collection time point, 2 μL of reaction mixtures were pipetted out into […] MALDI matrix solution (saturated solution of sinapinic acid in 1:1 ACN:water solution containing 0.15% trifluoroacetic acid (TFA)) deposited on 384 well polypropylene plate. The resulting solution was mixed by aspiration, centrifuged at 931 g for 1 minute, then 1.5 μL aliquots were dispensed on pre-treated MALDI target using Beckman Coulter Biomek FX^P 96/384-Span-8 Laboratory Automation Workstation. Finally, the MALDI target was dried under a mild vacuum to produce spots with a fine crystalline structure.
Measurements: MALDI-TOF measurements were performed on Bruker Daltonics rapifleX Tissuetyper TOF-TOF mass spectrometer using linear mode and mass ranging from 16.0 to 19.6 kDa. Detector gain was set to 0.64×(459 V), sample rate to 5 GS/s, real-time smoothing to medium (175 MHz), laser smart beam pattern was set to “Custom” single smartbeam beam scan with a scan range of 40 μm on both X and Y axis, and the laser frequency was 10000 Hz. Spectra were automatically collected using the custom AutoXecute method. Laser power was auto adjusted using fuzzy control. The peak selection range was set to be between 16.0 and 18.5 kDa. Peak evaluation uses a half-width parameter set to be smaller than 40 Da for processed spectrograms (centroid peak detection; smoothed by SavitzkyGolay algorithm using 7 m/z width and 2 cycles; baseline was subtracted using a median algorithm with flatness 1 and median level 0). Fuzzy control used Proteins/Oligonucleotides protocol with minimum half-width 1/10 times above threshold. Up to 40000 satisfactory shots were collected in 10000 short steps. Dynamic termination was implemented to finish data collection when the peak signal/noise ratio was reaching a value of 1000.
Spectra processing: Spectra were smoothed by SavitzkyGolay algorithm using 7 m/z width and three cycles. Centroid peak detection algorithm was used with signal to noise threshold set to 6, relative intensity threshold 3%, peak width 10 m/z, and median baseline subtraction using flatness of 1 and the median level of 0.1. Peak intensity and area under the peak were evaluated and recorded for all peaks between 16.0 and 19.5 kDa.
Calculation of percent modification: Percent modification was calculated as a ratio of peak height for protein modified by compound to the sum of the peak height of remaining protein plus peak height for protein modified by a compound. If multiple modifications were observed each was calculated as a ratio of peak height for given modification versus the sum of peak heights for all observed protein species.

pAKT in BT474 cells = experiment: Cell-based pAKT HTRF assay in BT474 cells; details: BT474 cells, 4 hr incubation, read-out: pAKT inhibition IC50 in BT474 cells
Method: On Day 1, cells were seeded into 96-well plates at 2.5×10^4 cells/well in complete growth media (DMEM, 10% FBS). On Day 2, cells were treated with compounds at 0.25% DMSO. The source plate was created with compounds diluted in media at 5-fold the final assay concentration. The compounds are run in a 9-point concentration curve starting at 3 μM, with a 3-fold dilution between concentrations. 20 μL was transferred onto the cell plates (final volume in wells was 100 μL). Plates were harvested after 4 hr incubation by aspirating media and adding kit-supplied 1× supplemented lysis buffer to all wells (75 μL per well). Plates were then placed on a plate shaker and incubated at 850 rpm for an additional 30 min. The antibody mixture solution was prepared by diluting aliquoted d2 and Eu Cryptate antibodies 1:20 in kit supplied detection buffer, then mixed the diluted antibodies solutions (1:1 v:v). 4 μL of this solution was then added to a 384-well detection plate (Perkin Elmer; 6008230). Samples were homogenized by pipetting up and down and then transferred (16 μL of cell lysates) from the 96-well cell culture plate to two wells of the HTRF 384-well detection plate containing the antibody solution. Plates were centrifuged (524 g for 1 min) and allowed to incubate between 4 and 24 h at room temperature. The maximum signal is reached after 4 h incubation time and remains stable over a period of 24 hours. Therefore, readings can be made between 4 and 24 h of incubation. Plates were centrifuged again (524 g for 1 m), and analyzed on the EnVision plate reader using the following settings: Excitation 320 nm, Bandwidth […]; Emission 615 nm, Bandwidth […], Gain 10000, Flashes 100, Lag 60 μs.

[2] = 1 μM protein target, 1:5 protein to compound ratio (compounds 853-1279)
[3] = 3.33 μM protein target, 1:7.5 protein to compound ratio (compounds 1-852)

Sequence of Cys242 in human PIK3CA (157-299) (P42336 157-299): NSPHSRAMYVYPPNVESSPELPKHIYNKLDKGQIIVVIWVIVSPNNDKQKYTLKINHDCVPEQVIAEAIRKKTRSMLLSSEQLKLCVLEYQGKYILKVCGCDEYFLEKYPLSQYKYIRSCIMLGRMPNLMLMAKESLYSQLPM

| Structure (SMILES) | % of modification [1, 2] | IC50 (pAKT in BT474 cells; Compounds 10-999) [nM] | IC50 (pAKT in BT474 cells; Compounds 1000-1279) [nM] | % of modification [1, 3] | IC50 (pAKT in BT474 cells; Homo sapiens, BT-474, Compounds 10-999) [nM] |
| --- | --- | --- | --- | --- | --- |
| C=CC(=O)N1CCc2ccc(-c3nc(-c4ccc5c(c4)CNC5=O)c4ccsc4c3-c3c(F)cc(F)cc3OCCO)cc2C1 (single isomer, unassigned) [Compound 962] | A (percent of modification of PIK3CA protein ≥75%) | < 100 |  |  |  |
| C=CC(=O)N1CCc2ccc(-c3nc(-c4cn(C)cn4)c4ccsc4c3-c3c(F)cc(F)cc3OCCO)cc2C1 (single isomer, unassigned) [Compound 1000] | A (percent of modification of PIK3CA protein ≥75%) |  | < 100 |  |  |
| C=CC(=O)N1CCc2ccc(-c3nc(-c4cn(C)cn4)c4ccsc4c3-c3c(F)cc(F)cc3OCCO)cc2C1 (single isomer, unassigned) [Compound 1001] | D (percent of modification <25%) |  | 100 to 1000 |  |  |
| C=CC(=O)N1CCc2nc(-c3nc(-c4ccc5c(c4)CNC5=O)c4ccsc4c3-c3c(F)cc(F)cc3OCCO)sc2C1 (single isomer, unassigned) [Compound 1033] | D (percent of modification <25%) |  | > 1000 |  |  |
| C=CC(=O)N1CCn2nc(-c3nc(-c4ccc5c(cnn5C)c4F)c4ccsc4c3-c3c(F)cc(F)cc3OCCO)cc2[C@H]1C (single isomer, unassigned) [Compound 1145] | A (percent of modification of PIK3CA protein ≥75%) |  | < 100 |  |  |
| C=CC(=O)N1CCn2nc(-c3nc(-c4ccc(CC(=O)N(C)C)cc4)c4ccsc4c3-c3c(F)cc(F)cc3OC)cc2[C@H]1C (single isomer, unassigned) [Compound 1146] | A (percent of modification of PIK3CA protein ≥75%) |  | < 100 |  |  |
| C=CC(=O)N1CCn2nc(-c3nc(-c4cnc5c(c4)CN(C)CC5)c4ccsc4c3-c3c(F)cc(F)cc3OC)cc2[C@H]1C (single isomer, unassigned) [Compound 1147] | A (percent of modification of PIK3CA protein ≥75%) |  | < 100 |  |  |
| C=CC(=O)N1CCn2nc(-c3nc(-c4cnc5c(c4)CN(C(C)C)CC5)c4ccsc4c3-c3c(F)cc(F)cc3OC)cc2[C@H]1C (single isomer, unassigned) [Compound 1148] | A (percent of modification of PIK3CA protein ≥75%) |  | < 100 |  |  |
| C=CC(=O)N1CCn2nc(-c3nc(-c4ccc([C@H](NC)C(F)(F)F)cc4)c4ccsc4c3-c3c(F)cc(F)cc3OCCOC)cc2[C@H]1C (single isomer, unassigned) [Compound 1149] | A (percent of modification of PIK3CA protein ≥75%) |  | < 100 |  |  |
| C=CC(=O)N1CCn2nc(-c3nc(-c4ccc([C@H](N(C)C)C(F)(F)F)cc4)c4ccsc4c3-c3c(F)cc(F)cc3OCCOC)cc2[C@H]1C (single isomer, unassigned) [Compound 1150] | A (percent of modification of PIK3CA protein ≥75%) |  | 100 to 1000 |  |  |
| C=CC(=O)N1CCn2nc(-c3nc(-c4ccc(C5(C(=O)NC)CC5)cc4)c4ccsc4c3-c3c(F)cc(F)cc3OC)cc2[C@H]1C (single isomer, unassigned) [Compound 1151] | A (percent of modification of PIK3CA protein ≥75%) |  | 100 to 1000 |  |  |
| C=CC(=O)N1CCC(n2cc(-c3nc(-c4ccc5c(c4)CS(=O)(=O)C5)c4ccsc4c3-c3ccc(F)cc3OCCOC)cn2)CC1 [Compound 61] |  | < 100 |  | A (percent of modification of PIK3CA protein ≥75%) |  |
| C=CC(=O)N1CCc2ncc(-c3nc(-c4ccc5c(c4)CCNC5)c4ccsc4c3-c3ccc(F)cc3OCCOC)cc2C1 [Compound 62, 1-[3-[7-[4-fluoro-2-(2-methoxyethoxy)phenyl]-4-(1,2,3,4-tetrahydroisoquinolin-6-yl)thieno[3,2-c]pyridin-6-yl]-7,8-dihydro-5H-1,6-naphthyridin-6-yl]prop-2-en-1-one] |  |  |  | A (percent of modification of PIK3CA protein ≥75%) | < 100 |
| C=CC(=O)N1CC[C@H](n2cc(-c3nc(-c4ccc5c(c4)CCC(O)C5)c4ccsc4c3-c3ccc(F)cc3OCCOC)cn2)C1 (stereo partly shown) [Compound 64] |  | < 100 |  | A (percent of modification of PIK3CA protein ≥75%) |  |
